The subject of test [1] is Av5E1aTK01i. In words: GCV inhibition of Av5E1aTk01i replication in vivo, immunohistochemistry of subcutaneous A549 tumors. Details: species or system nude mice. To be noted: A549 tumors injected with 1×10^9 pfu Av5E1aTK01i; IP GCV 75 mg/kg once a day for 5 days. The procedure:
FIG. 7. GCV Inhibition of Av5E1aTk01i Replication In Vivo. Subcutaneous tumors were formed by injecting 1×10^7 A549 cells into the subcutaneous space of the right flank of nude mice. After tumors formed 1×10^9 pfu of Add1327Tk01i was injected into several animals containing tumors. After 5 days, half of the animals received 5 days of IP GCV treatment at 75 mg/kg once a day. At the end of this time frame all animals were sacrificed. Immunohistochemistry was performed on all samples for HSV-TK expression and hexon expression, the latter which is only expressed when the vector is replicating.
Subcutaneous tumors were formed by injecting 1×10^7 A549 cells into the subcutaneous space of the right flank of nude mice. After tumors formed, 1×10^9 pfu of Av5E1aTK01i was injected into several animals containing tumors. After 5 days half the animals received 5 days of IP GCV treatment at 75 mg/kg once a day. At the end of this time frame all animals were sacrificed. Immunohistochemistry was performed on all samples for HSV-TK expression and hexon expression, the latter which is only expressed when the vector is replicating.

Another test concerns Add1327. Put plainly: GCV inhibition of vector replication in vitro, viral titer by TCID50 on 293 cells. To be noted: A549 cells transduced with Add1327; 10 μM GCV for 5 days; repeated three times. It counts as cell-based. On the procedure: (§1) FIG. 6. GCV Inhibition of Av5E1aTk01i Replication In Vitro. A549 cells were transduced with either Add1327 or Add1327Tk01i. Cells were then treated with 10 uM GCV for 5 days. Following the 5 day incubation, cells were harvested, washed in HBSS, and then freeze/thawed to prepare a crude viral lysate. Titers were then performed by standard TCID50 assays on 293 cells to determine viral titer. The experiment was repeated three times.
(§2) HSV-TK was placed into the E3 region of Add1327 to form Av5E1aTK01i. A549 cells were transduced with either Add1327 or Av5E1aTK01i. Cells were then treated with 10 μM GCV for 5 days. Following the 5 day incubation cells were harvested, washed in HBSS, and then freeze/thawed to prepare a crude viral lysate. Titers were then performed by standard TCID^50 assays on 293 cells to determine viral titer. The experiment was repeated three times.

The subject of test [2] is Av5E1aTK01i. Described as above. It counts as cell-based. The conditions noted are these: A549 cells transduced with Av5E1aTK01i; 10 μM GCV for 5 days; repeated three times. The procedure: as §1, §2

The structures appear in SMILES notation.

With `Nc1nc(O)c2ncn(COC(CO)CO)c2n1` [GCV, ganciclovir], the “hexon expression (only expressed when the vector is replicating), immunohistochemistry” value in the test on Av5E1aTK01i [1] was “severely diminished”. For the same compound, the “effect on viral titer of an adenovirus not carrying the HSV-TK gene” value in the test on Add1327 is listed as “no effect”. Further, the “drop in titer of a vector carrying the HSV-TK gene” value with Av5E1aTK01i [2] was “greater than 4 order of magnitude”.

Source of the values: US6638762B1, “Tissue-vectors specific replication and gene expression” (priority 1994, dated 2003).
